Reference: US20250282799A1, “SUBSTITUTED PYRIDO[4,3-d]PYRIMIDINES AS KRAS MODULATORS” (Alterome Therapeutics, Inc., priority 2023, published 2025)
pIC50: −log10 of the molar value.

These compounds were tested on KRAS G12V dependent lung adenocarcinoma cell line, NCI-H441 (assay: Cellular pERK (Thr202/Tyr204) FRET/HTRF assay). Settings: Homo sapiens, NCI-H441, cellular pERK (Thr202/Tyr204) HTRF, NCI-H441 cells.
Type: cell-based
Text: “Ras” refers to a protein in the Ras superfamily of small GTPases, such as in the Ras subfamily. […] The Ras proteins play a critical role in the regulation of cell behaviors, including proliferation, differentiation, and survival. […] KRAS G12V, G12D, and G12S variants are common in human cancers and Ras inhibitors binding in or near the Switch II pocket may provide mutant binding selectivity. RAS mutations are known to be often associated with pancreatic, colorectal and non-small-cell lung carcinomas (Lone, A. M. et al. J. Am. Chem. Soc. 2011,133, 11665-74, which is entirely incorporated herein by reference; Dillon, M. B.; Bachovchin, D. A.; Brown, S. J.; Finn, M. G.; Rosen, H.; Cravatt, B. F.; Mowen, K. A. ACS Chem. Biol. 2012, 7, 1198-204, which is entirely incorporated herein by reference; Bachovchin, D. A.; Brown, S. J.; Rosen, H.; Cravatt, B. F. Nat. Biotechnol. 2009, 27, 387-94, Ostrem, J. M.; Peters, U.; Sos, M. L.; Wells, J. A.; Shokat, K. M. Nature 2013, 503, 548-551. Ryan M. B. and Corcoran R. B, Nat. Rev Clin Onco. 2018, 11, 709-720.). Ras proteins are key members in the Ras/Raf/Mitogen-activated protein kinase (MAPK) signaling pathway. This pathway regulates a wide variety of cellular processes, including proliferation, differentiation, apoptosis, and stress responses. One way to measure the impact of an inhibitor of Ras proteins is to measure downstream phosphorylation of proteins in the MAPK pathway. The MAPK pathway includes extracellular signal-regulated kinases named ERK1 and ERK2, which are serine-threonine kinases that regulate cellular signaling under both normal and oncogenic conditions. ERK expression and hyperactivation via phosphorylation plays a major role in cancer progression and are downstream of Ras proteins. The assay used for measuring the downstream impact of Ras inhibition is the use of a highly sensitive cell-based readout of ERK phosphorylation (pERK) specifically on Threonine (Thr) 202 and Tyrosine (Tyr) 204 in a KRAS G12V dependent lung adenocarcinoma cell line, NCI-H441 (ATCC Cat #HTB-174). The assay described herein is suitable for assessing inhibition of Ras and can be tailored for any of the predominant oncogenic mutations in any isoform of Ras (e.g., KRAS, HRAS, and NRAS) by changing the cell line.
pERK was measured using an advanced pERK assay designed for the robust and highly sensitive quantification of ERK phosphorylation on Thr202/Tyr204. This assay is intended for the simple, rapid, and direct detection of endogenous levels of ERK1/2 in cells, but only when ERK is phosphorylated at Thr202 and Tyr204 (Perkin Elmer Catalog #64AERPEH). pERK was detected in a FRET based sandwich assay format using 2 different specific antibodies, one labelled with Eu3+-Cryptate (donor) and the second with d2 (acceptor). When the dyes are in close proximity, the excitation of the donor with a light source (laser or flash lamp) triggers a Fluorescence Resonance Energy Transfer (FRET) towards the acceptor, which in turn fluoresces at a specific wavelength (665 nm). The specific signal modulates positively in proportion to p-ERK1/2 (Thr202/Tyr204). The simple mix-and-read protocol eliminates all wash steps for faster analysis and high-quality output. Briefly, cells were diluted to the desired concentration per well based on a growth curve showing ˜75% confluence within a 24-hour time period at no less than 95% viability. Cell suspension (24 μL) were added into each well of 384-well culture plate and maintained in 37° C. 5% CO2 incubator overnight prior to assay. All compounds were transferred to stock plates using TECAN (EVO200) liquid handler using DMSO as the solubilizing and dilution agent. Test compounds were transferred onto adherent cells using an Echo655 liquid handler. DMSO was employed as negative control. Cells were incubated with test compounds for 1 hr in a 37° C., 5% CO2 incubator following compound addition. […]

pIC50	Compound
> 7.30	[2H]C([2H])(Oc1nc(N2CCOC[C@H]3[C@H](F)[C@H]32)c2cnc(-c3cc(O)cc4cccc(C#C)c34)c(F)c2n1)[C@@]12CCCN1C[C@H](F)C2 [Example 300, 5-ethynyl-4-(8-fluoro-4-((1S,7S,8S)-8-fluoro-5-oxa-2-azabicyclo[5.1.0]octan-2-yl)-2-(((2R,7aS)-2-fluorotetrahydro-1H-pyrrolizin-7a(5H)-yl)methoxy-d2)pyrido[4,3-d]pyrimidin-7-yl)naphthalen-2-ol]
> 7.30	[2H]C([2H])(F)Oc1c(F)c(F)cc2cccc(-c3ncc4c(N5CCCC[C@H]6[C@H](F)[C@H]65)nc(OC([2H])([2H])[C@@]56CCCN5C[C@H](F)C6)nc4c3F)c12 [Example 95, 7-(6,7-difluoro-8-(fluoromethoxy-d2)naphthalen-1-yl)-8-fluoro-4-((1S,7R,8S)-8-fluoro-2-azabicyclo[5.1.0]octan-2-yl)-2-(((2R,7aS)-2-fluorotetrahydro-1H-pyrrolizin-7a(5H)-yl)methoxy-d2)pyrido[4,3-d]pyrimidine]
> 7.30	C#Cc1c(Cl)ccc2cc(N)cc(-c3ncc4c(N5CCOC[C@H]6[C@H](F)[C@H]65)nc(OC[C@@H]5CCCN5C)nc4c3F)c12 [Example 296, 6-chloro-5-ethynyl-4-(8-fluoro-4-((1S,7S,8S)-8-fluoro-5-oxa-2-azabicyclo[5.1.0]octan-2-yl)-2-(((S)-1-methylpyrrolidin-2-yl)methoxy)pyrido[4,3-d]pyrimidin-7-yl)naphthalen-2-amine]
> 7.30	C#Cc1c(F)ccc2cc(N)cc(-c3ncc4c(N5CCOC[C@H]6[C@H](F)[C@H]65)nc(OC[C@@]56CCCN5CC(=C(F)F)C6)nc4c3F)c12 [Example 134, 4-(2-(((S)-2-(difluoromethylene)tetrahydro-1H-pyrrolizin-7a(5H)-yl)methoxy)-8-fluoro-4-((1S,7S,8S)-8-fluoro-5-oxa-2-azabicyclo[5.1.0]octan-2-yl)pyrido[4,3-d]pyrimidin-7-yl)-5-ethynyl-6-fluoronaphthalen-2-amine]
> 7.30	C#Cc1c(F)ccc2cc(N)cc(-c3ncc4c(N5CCOC[C@H]6[C@H](F)[C@H]65)nc(OC[C@@]56CCCN5C[C@]5(C[C@@H]5F)C6)nc4c3F)c12 (single isomer, unassigned) [Example 255]
6.30 to 7.30	[2H]C([2H])(Oc1nc(N2CC[C@@H](C#N)C[C@@H]3[C@H](F)[C@@H]32)c2cnc(-c3cc(N)cc4ccc(F)c(C#C)c34)c(F)c2n1)[C@@]12CCCN1C[C@H](F)C2 [Example 311, (1R,5S,7S,8S)-2-(7-(3-amino-8-ethynyl-7-fluoronaphthalen-1-yl)-8-fluoro-2-(((2R,7aS)-2-fluorotetrahydro-1H-pyrrolizin-7a(5H)-yl)methoxy-d2)pyrido[4,3-d]pyrimidin-4-yl)-8-fluoro-2-azabicyclo[5.1.0]octane-5-carbonitrile]

Same assay, conditions: Homo sapiens, NCI-H441, cellular pERK HTRF, NCI-H441 (KRAS G12V) cells

pIC50	Compound
> 7.30	[2H]C([2H])(Oc1nc(N2CCCC[C@H]3[C@H](F)[C@H]32)c2cnc(-c3cc(N)cc4ccc(F)c(C#C)c34)c(C)c2n1)[C@]12CC(=C)CN1CCC21CC1 [Example 458, 5-Ethynyl-6-fluoro-4-(4-((1S,7R,8S)-8-fluoro-2-azabicyclo[5.1.0]octan-2-yl)-8-methyl-2-(((R)-6′-methylenetetrahydrospiro[cyclopropane-1,1′-pyrrolizin]-7a′(5′H)-yl)methoxy-d2)pyrido[4,3-d]pyrimidin-7-yl)naphthalen-2-amine]

Same assay, conditions: Homo sapiens, NCI-H441, pERK HTRF, NCI-H441 cells (KRAS G12V)

pIC50	Compound
6.30 to 7.30	[2H]C([2H])(Oc1nc(N2CCCO[C@@H]3C[C@@H]32)c2c(OC)nc(-c3cc(N)cc4cc(F)c(F)c(C#C)c34)c(F)c2n1)[C@@]12CCCN1C[C@H](F)C2 [Example 33, 4-(4-((1R,7S)-2-Oxa-6-azabicyclo[5.1.0]octan-6-yl)-8-fluoro-2-(((2R,7aS)-2-fluorotetrahydro-1H-pyrrolizin-7a(5H)-yl)methoxy-d2)-5-methoxypyrido[4,3-d]pyrimidin-7-yl)-5-ethynyl-6,7-difluoronaphthalen-2-amine]
> 7.30	C#Cc1c(F)ccc2cc(O)cc(-c3ncc4c(N5CCCC6CC6C5)nc(OC[C@@]56CCCN5C[C@H](F)C6)nc4c3F)c12 (stereo partly drawn) [Example 12, 4-(4-(3-Azabicyclo[5.1.0]octan-3-yl)-8-fluoro-2-(((2R,7aS)-2-fluorotetrahydro-1H-pyrrolizin-7a(5H)-yl)methoxy)pyrido[4,3-d]pyrimidin-7-yl)-5-ethynyl-6-fluoronaphthalen-2-ol]
6.30 to 7.30	[2H]C([2H])(Oc1nc(N2CCC[C@@H]3[C@@H](F)[C@@H]32)c2cnc(-c3cc(N)cc4cc(F)c(F)c(C#C)c34)c(F)c2n1)[C@@]12CCCN1C[C@H](F)C2 [Example 53, 5-Ethynyl-6,7-difluoro-4-(8-fluoro-4-((1R,6S,7R)-7-fluoro-2-azabicyclo[4.1.0]heptan-2-yl)-2-(((2R,7aS)-2-fluorotetrahydro-1H-pyrrolizin-7a(5H)-yl)methoxy-d2)pyrido[4,3-d]pyrimidin-7-yl)naphthalen-2-amine]
> 7.30	[2H]C([2H])(Oc1nc(N2CCCO[C@H]3C[C@H]32)c2c(OC)nc(-c3cc(N)cc4cc(F)c(F)c(C#C)c34)c(F)c2n1)[C@@]12CCCN1C[C@H](F)C2 [Example 34, 4-(4-((1S,7R)-2-Oxa-6-azabicyclo[5.1.0]octan-6-yl)-8-fluoro-2-(((2R,7aS)-2-fluorotetrahydro-1H-pyrrolizin-7a(5H)-yl)methoxy-d2)-5-methoxypyrido[4,3-d]pyrimidin-7-yl)-5-ethynyl-6,7-difluoronaphthalen-2-amine]
> 7.30	[2H]C([2H])([2H])Oc1c(F)c(F)cc2cc(N)cc(-c3ncc4c(N5CCCO[C@H]6[C@H](F)[C@H]65)nc(OC([2H])([2H])[C@@]56CCCN5C[C@H](F)C6)nc4c3F)c12 [Example 74, 6,7-Difluoro-4-(8-fluoro-4-((1R,7S,8R)-8-fluoro-2-oxa-6-azabicyclo[5.1.0]octan-6-yl)-2-(((2R,7aS)-2-fluorotetrahydro-1H-pyrrolizin-7a(5H)-yl)methoxy-d2)pyrido[4,3-d]pyrimidin-7-yl)-5-(methoxy-d3)naphthalen-2-amine]
> 7.30	[2H]C([2H])(F)Oc1c(F)ccc2cccc(-c3ncc4c(N5CCCC[C@H]6[C@H](F)[C@H]65)nc(OC([2H])([2H])[C@@]56CCCN5C[C@H](F)C6)nc4c3F)c12 [Example 72, 8-Fluoro-7-(7-fluoro-8-(fluoromethoxy-d2)naphthalen-1-yl)-4-((1S,7R,8S)-8-fluoro-2-azabicyclo[5.1.0]octan-2-yl)-2-(((2R,7aS)-2-fluorotetrahydro-1H-pyrrolizin-7a(5H)-yl)methoxy-d2)pyrido[4,3-d]pyrimidine]
5.00 to 6.30	[2H]C([2H])(Oc1nc(N2CCCCC[C@@H]3C[C@@H]32)c2cnc(-c3cc(N)cc4cc(F)c(F)c(C#C)c34)c(F)c2n1)[C@@]12CCCN1C[C@H](F)C2 [Example 55, 4-(4-((1S,8R)-2-azabicyclo[6.1.0]nonan-2-yl)-8-fluoro-2-(((2R,7aS)-2-fluorotetrahydro-1H-pyrrolizin-7a(5H)-yl)methoxy-d2)pyrido[4,3-d]pyrimidin-7-yl)-5-ethynyl-6,7-difluoronaphthalen-2-amine]
